As usually defined, the inhibition is how much of the control response was suppressed.

For this assay, the target named is T1, human MetAP2 (Homo sapiens, UniProt P50579).
T1 construct: made in house; host or cells: Sf9 insect cells (baculovirus)
As to the kind of experiment: MetAP2 enzymatic screening test (isolated enzyme, Met-Pro-Arg-pNa substrate, absorbance at 405 nm). It is filed as biochemical. As to conditions: read-out: % inhibition hMETAP2 at 100 nM. How it is done:
The compounds according to the invention underwent biochemical studies in order to determine their capacity to inhibit the enzyme methionine-aminopeptidase2 (enzymatic test on isolated enzyme).
MetAP2 Enzymatic Screening Test
For the enzymatic test, human MetAP2 protein was obtained from a culture supernatant of insect cells (sf9) infected with MetAP2 recombinant baculovirus.
Before performing the experiment, dialysis of the MetAP2 supernatant is performed over 24 hours at 4° C. in a buffer (10 mM Hepes, 100 mM KCl, 10% glycerol, pH 7.4) in the presence of EDTA (1 mM) over the first 12 hours.
The dialysis supernatant is recovered and manganese, used as cofactor, is added to a final concentration of 300 μM.
The enzymatic test is a test in two steps.
Consequently, the second step consists in reacting the peptides cleaved in the preceding step with a second peptidase in order to release the chromophore.

T1 sequence (P50579 whole entry): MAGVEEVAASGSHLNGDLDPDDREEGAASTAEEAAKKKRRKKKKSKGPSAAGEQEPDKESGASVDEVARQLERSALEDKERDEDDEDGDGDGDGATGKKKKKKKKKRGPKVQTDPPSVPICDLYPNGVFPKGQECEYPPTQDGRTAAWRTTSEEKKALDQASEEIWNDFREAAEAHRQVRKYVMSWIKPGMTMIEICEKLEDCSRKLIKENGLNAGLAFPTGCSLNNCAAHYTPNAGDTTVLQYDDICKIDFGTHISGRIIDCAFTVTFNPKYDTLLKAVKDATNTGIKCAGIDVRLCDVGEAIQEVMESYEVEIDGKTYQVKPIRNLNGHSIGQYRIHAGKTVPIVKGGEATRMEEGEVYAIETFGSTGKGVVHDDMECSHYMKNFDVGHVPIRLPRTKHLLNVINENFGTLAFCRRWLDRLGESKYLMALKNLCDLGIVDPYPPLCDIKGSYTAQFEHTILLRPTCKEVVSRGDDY

Turning to `Cc1nc(N)ccc1-c1ccc2c3[nH]ncc3c(=O)n(CC(F)(F)F)c2c1` [Compound 142, 7-(6-amino-2-methylpyrid-3-yl)-5-(2,2,2-trifluoroethyl)-1,5-dihydro-4H-pyrazolo[4,3-c]quinolin-4-one], the inhibition at 0.1 µM came out at 44%.

In the case of `O=c1c2cn[nH]c2c2ccc(-c3ccc(F)cn3)cc2n1CC(F)(F)F` [Compound 165, 7-(5-fluoropyrid-2-yl)-5-(2,2,2-trifluoroethyl)-1,5-dihydro-4H-pyrazolo[4,3-c]quinolin-4-one], the inhibition at 0.1 µM was 37%.

With `CCn1c(=O)c2cn[nH]c2c2ccc(-c3ccc(C(=O)NCCN(C)C)cc3)cc21` [Compound 13, N-(2-dimethylaminoethyl)-4-(5-ethyl-4-oxo-4,5-dihydro-1H-pyrazolo[4,3-c]quinolin-7-yl)benzamide], the inhibition at 0.1 µM turned out to be 75%.

For `Nc1ncc(F)cc1-c1ccc2c3[nH]ncc3c(=O)n(CC(F)(F)F)c2c1` [Compound 132, 7-(2-amino-5-fluoropyrid-3-yl)-5-(2,2,2-trifluoroethyl)-1,5-dihydro-4H-pyrazolo[4,3-c]quinolin-4-one], the inhibition at 0.1 µM amounted to 46%.

As to `CCn1c(=O)c2cn[nH]c2c2ccc(-c3ccc(C(N)=O)c(Cl)c3)cc21` [Compound 33, 2-chloro-4-(5-ethyl-4-oxo-4,5-dihydro-1H-pyrazolo[4,3-c]quinolin-7-yl)benzamide], the inhibition at 0.1 µM turned out to be 62%.

For `CCCc1ncncc1-c1ccc2c3[nH]ncc3c(=O)n(CC(F)(F)F)c2c1` [Compound 146, 7-(4-propylpyrimidin-5-yl)-5-(2,2,2-trifluoroethyl)-1,5-dihydro-4H-pyrazolo[4,3-c]quinolin-4-one], the inhibition at 0.1 µM stood at 42%.

Consider `O=C(c1ccc(-c2ccc3c4[nH]ncc4c(=O)n(CC(F)(F)F)c3c2)cn1)N1CCOCC1` [Compound 141, 7-[6-(morpholine-4-carbonyl)pyrid-3-yl]-5-(2,2,2-trifluoroethyl)-1,5-dihydro-4H-pyrazolo[4,3-c]quinolin-4-one], for which the inhibition at 0.1 µM was 44%.

In the case of `CCn1c(=O)c2cn[nH]c2c2ccc(-c3ccc(C(=O)NCCCN(C)C)cc3)cc21` [Compound 9, N-(3-dimethylaminopropyl)-4-(5-ethyl-4-oxo-4,5-dihydro-1H-pyrazolo[4,3-c]quinolin-7-yl)benzamide], the inhibition at 0.1 µM is 78%.

As for `CCc1ncncc1-c1ccc2c3[nH]ncc3c(=O)n(CC(F)(F)F)c2c1` [Compound 143, 7-(4-ethylpyrimidin-5-yl)-5-(2,2,2-trifluoroethyl)-1,5-dihydro-4H-pyrazolo[4,3-c]quinolin-4-one], the inhibition at 0.1 µM is 43%.

Turning to `Cc1cc(-n2cnnc2)ncc1-c1ccc2c3[nH]ncc3c(=O)n(CC(F)(F)F)c2c1` [Compound 140, 7-(4-methyl-6-[1,2,4]triazol-4-ylpyrid-3-yl)-5-(2,2,2-trifluoroethyl)-1,5-dihydro-4H-pyrazolo[4,3-c]quinolin-4-one], the inhibition at 0.1 µM is 44%.

With `COc1ccc(-c2ccc3c4[nH]ncc4c(=O)n(CC(F)(F)F)c3c2)cn1` [Compound 128, 7-(6-methoxypyrid-3-yl)-5-(2,2,2-trifluoroethyl)-1,5-dihydro-4H-pyrazolo[4,3-c]quinolin-4-one], the inhibition at 0.1 µM turned out to be 41%.

Regarding `CCn1c(=O)c2cn[nH]c2c2ccc(-c3ccc(N4CCNCC4)cc3)cc21` [Compound 10, 5-ethyl-7-(4-piperazin-1-ylphenyl)-1,5-dihydro-4H-pyrazolo[4,3-c]quinolin-4-one], the inhibition at 0.1 µM worked out at 77%.

Turning to `Cc1cc(N)ncc1-c1ccc2c3[nH]ncc3c(=O)n(CC(F)(F)F)c2c1` [Compound 137, 7-(6-amino-4-methylpyrid-3-yl)-5-(2,2,2-trifluoroethyl)-1,5-dihydro-4H-pyrazolo[4,3-c]quinolin-4-one], the inhibition at 0.1 µM is 45%.

As for `CCn1c(=O)c2cn[nH]c2c2ccc(-c3ccc(C(C)N4CCCC4)cc3)cc21` (stereo not drawn) [Compound 22, 5-ethyl-7-[4-(1-pyrrolidin-1-yl-ethyl)phenyl]-1,5-dihydro-4H-pyrazolo[4,3-c]quinolin-4-one], the inhibition at 0.1 µM stood at 69%.

As to `O=c1c2cn[nH]c2c2ccc(-c3ccnc(Cl)c3F)cc2n1CC(F)(F)F` [Compound 41, 7-(2-chloro-3-fluoropyrid-4-yl)-5-(2,2,2-trifluoroethyl)-1,5-dihydro-4H-pyrazolo[4,3-c]quinolin-4-one], the inhibition at 0.1 µM was 40%.

As for `O=c1c2cn[nH]c2c2ccc(-c3ccc(CO)cn3)cc2n1CC(F)(F)F` [Compound 157, 7-(5-hydroxymethylpyrid-2-yl)-5-(2,2,2-trifluoroethyl)-1,5-dihydro-4H-pyrazolo[4,3-c]quinolin-4-one], the inhibition at 0.1 µM turned out to be 41%.

Regarding `O=c1c2cn[nH]c2c2ccc(-c3cc(Cl)cnc3F)cc2n1CC(F)(F)F` [Compound 129, 7-(5-chloro-2-fluoropyrid-3-yl)-5-(2,2,2-trifluoroethyl)-1,5-dihydro-4H-pyrazolo[4,3-c]quinolin-4-one], the inhibition at 0.1 µM came out at 36%.

With `CCn1c(=O)c2cn[nH]c2c2ccc(-c3ccc(N4CCN(C)CC4)cc3)cc21` [Compound 11, 5-ethyl-7-[4-(4-methylpiperazin-1-yl)phenyl]-1,5-dihydro-4H-pyrazolo[4,3-c]quinolin-4-one], the inhibition at 0.1 µM stood at 76%.

As for `COc1ncc(-c2ccc3c4[nH]ncc4c(=O)n(CC(F)(F)F)c3c2)c(N(C)C)n1` [Compound 149, 7-(4-dimethylamino-2-methoxypyrimidin-5-yl)-5-(2,2,2-trifluoroethyl)-1,5-dihydro-4H-pyrazolo[4,3-c]quinolin-4-one], the inhibition at 0.1 µM was 42%.

Turning to `O=c1c2cn[nH]c2c2ccc(-c3cc(Cl)cnc3Cl)cc2n1CC(F)(F)F` [Compound 57, 7-(2,5-dichloropyrid-3-yl)-5-(2,2,2-trifluoroethyl)-1,5-dihydro-4H-pyrazolo[4,3-c]quinolin-4-one], the inhibition at 0.1 µM was found to be 38%.

Regarding `CCn1c(=O)c2cn[nH]c2c2ccc(-c3cnc(N4CCNCC4)nc3)cc21` [Compound 20, 5-ethyl-7-(2-piperazin-1-ylpyrimidin-5-yl)-1,5-dihydro-4H-pyrazolo[4,3-c]quinolin-4-one], the inhibition at 0.1 µM was determined as 70%.

For the compound `O=c1c2cn[nH]c2c2ccc(-c3cncnc3-c3ccccc3)cc2n1CC(F)(F)F` [Compound 160, 7-(4-phenylpyrimidin-5-yl)-5-(2,2,2-trifluoroethyl)-1,5-dihydro-4H-pyrazolo[4,3-c]quinolin-4-one], the inhibition at 0.1 µM was determined as 40%.

With `CCn1c(=O)c2cn[nH]c2c2ccc(-c3ccc4[nH]ncc4c3)cc21` [Compound 34, 5-ethyl-7-(1H-indazol-5-yl)-1,5-dihydro-4H-pyrazolo[4,3-c]quinolin-4-one], the inhibition at 0.1 µM was 62%.

On to `CCC(=O)Nc1ccc(-c2ccc3c4[nH]ncc4c(=O)n(CC(F)(F)F)c3c2)c(C)n1` [Compound 147, N-{6-methyl-5-[4-oxo-5-(2,2,2-trifluoroethyl)-4,5-dihydro-1H-pyrazolo[4,3-c]quinolin-7-yl]pyrid-2-yl}propionamide], for which the inhibition at 0.1 µM turned out to be 42%.

On to `O=c1c2cn[nH]c2c2ccc(-c3cccc(F)n3)cc2n1CC(F)(F)F` [Compound 163, 7-(6-fluoropyrid-2-yl)-5-(2,2,2-trifluoroethyl)-1,5-dihydro-4H-pyrazolo[4,3-c]quinolin-4-one], for which the inhibition at 0.1 µM is 38%.

Regarding `CCn1c(=O)c2cn[nH]c2c2ccc(-c3ccc(C(=O)N4CCNCC4)cc3)cc21` [Compound 18, 5-ethyl-7-[4-(piperazine-1-carbonyl)phenyl]-1,5-dihydro-4H-pyrazolo[4,3-c]quinolin-4-one], the inhibition at 0.1 µM was 72%.

With `COC(=O)c1cccc(-c2ccc3c4[nH]ncc4c(=O)n(CC(F)(F)F)c3c2)n1` [Compound 164, methyl 6-[4-oxo-5-(2,2,2-trifluoroethyl)-4,5-dihydro-1H-pyrazolo[4,3-c]quinolin-7-yl]pyridine-2-carboxylate], the inhibition at 0.1 µM came out at 37%.

Regarding `COc1ccnc(-c2ccc3c4[nH]ncc4c(=O)n(CC(F)(F)F)c3c2)c1` [Compound 145, 7-(4-methoxypyrid-2-yl)-5-(2,2,2-trifluoroethyl)-1,5-dihydro-4H-pyrazolo[4,3-c]quinolin-4-one], the inhibition at 0.1 µM came out at 42%.

`O=c1c2cn[nH]c2c2ccc(-c3cccc(Cl)c3O)cc2n1CC(F)(F)F` [Compound 53, 7-(3-chloro-2-hydroxyphenyl)-5-(2,2,2-trifluoroethyl)-1,5-dihydro-4H-pyrazolo[4,3-c]quinolin-4-one]: the inhibition at 0.1 µM was 43%.

As to `N#Cc1cccc(-c2ccc3c4[nH]ncc4c(=O)n(CC(F)(F)F)c3c2)n1` [Compound 153, 6-[4-oxo-5-(2,2,2-trifluoroethyl)-4,5-dihydro-1H-pyrazolo[4,3-c]quinolin-7-yl]pyridine-2-carbonitrile], the inhibition at 0.1 µM worked out at 41%.

Regarding `CCc1nc(-c2ccccc2-c2ccc3c4[nH]ncc4c(=O)n(CC(F)(F)F)c3c2)no1` [Compound 150, 7-[2-(5-ethyl-[1,2,4]oxadiazol-3-yl)phenyl]-5-(2,2,2-trifluoroethyl)-1,5-dihydro-4H-pyrazolo[4,3-c]quinolin-4-one], the inhibition at 0.1 µM worked out at 42%.

Take `CCn1c(=O)c2cn[nH]c2c2ccc(-c3ccc(CNC(C)=O)cc3)cc21` [Compound 38, N-[4-(5-ethyl-4-oxo-4,5-dihydro-1H-pyrazolo[4,3-c]quinolin-7-yl)benzyl]acetamide]: the inhibition at 0.1 µM stood at 60%.

On to `CCN(CC)S(=O)(=O)c1ccccc1-c1ccc2c3[nH]ncc3c(=O)n(CC(F)(F)F)c2c1` [Compound 136, N,N-diethyl-2-[4-oxo-5-(2,2,2-trifluoroethyl)-4,5-dihydro-1H-pyrazolo[4,3-c]quinolin-7-yl]benzenesulfonamide], for which the inhibition at 0.1 µM was 45%.

The values are drawn from US20140235616A1, “PYRAZOLOQUINOLINONE DERIVATIVES, PREPARATION THEREOF AND THERAPEUTIC USE THEREOF” (SANOFI, priority 2011, published 2014).
